Experimental data as given in US20060025483A1, “(-)-Hydroxycitric acid for protection against soft tissue and arterial calcification” (priority 2004, published 2006).

Experiments:
[1] = system: systolic blood pressure; assay: systolic blood pressure (SBP) by tail plethysmography, rats on 30% fat / sucrose diet; type: in vivo, Sprague-Dawley Rats; conditions: for lowering of SBP: end of 8 weeks
Text: (§1) A known effect of ACE inhibitors is a reduction in elevated systolic blood pressure. To test this, the following protocol was employed: Sprague-Dawley Rats (SD), approximately 8 weeks of age were obtained. Six groups of eight male SD received the same standard rat chow manufactured to specifications. The special diets derived 30% of calories from fats (one half from lard and one half from corn oil), 50% from carbohydrates, and 20% from proteins. Twenty percent of dietary calories was derived from sucrose and the preponderance of the remaining carbohydrate calories was derived from dextrin. During weekdays (M-F), each group was gavaged twice daily with a solution containing a commercial source of potassium hydroxycitrate (KHCA), a commercial source of potassium-calcium hydroxycitrate (KCaHCA), or a pre-commercial non-salt source of potassium-magnesium hydroxycitrate (KMgHCA, listed as KMgHCA L-Low, M-Intermediate or H-High depending upon the dose). Over the weekends (S-S), a similar quantity of the weekday daily dose was added to twenty grams of food, that is, an amount of food estimated to be close to the daily intake of the animals. At initiation of study and four weeks, and eight weeks later, bloods were drawn from all SD for routine blood chemistries. Body weight (BW) was measured weekly and systolic blood pressure (SBP) was measured every two weeks.
The HCA dosages in the arms varied. The dosage used in the KHCA arm was extrapolated from the recommended 1,500 mg HCA per day for humans consuming a normal diet (i.e., ≧30% calories derived from fats) advocated by a commercial seller of KHCA and claimed to have produced acceptable clinical results. The approximate equivalent for the rat model is 35.4 mg HCA per day, which we increased to 38.4 mg HCA per day for convenience in employing a 48% HCA potassium salt and to remain safely on the high side in practice. For the sake of comparison, a commercial KCaHCA salt (60% HCA) was chosen and delivered at an HCA dosage level of 48 mg per day, which slightly exceeded the lowest dosage of HCA found to be efficacious for inhibition of weight gain in rats in the early pharmaceutical trials (45.4 mg/day) using pure trisodium hydroxycitrate and a very low fat diet. The design thus utilized a realistic diet with rough equivalents of the HCA dosages claimed to be effective in both the human and rat models.
The experimental KMgHCA dosings varied considerably from that of the other two salts. […] As a result, the recalculated HCA doses for the experimental compound were a low dose (KMgHCA L) of 14 mg, an intermediate dose (KMgHCA M) of 28 mg and a high dose (KMgHCA H) of 84 mg per day. The difficulty in calculating the HCA content in this case is not unique inasmuch as there is as of yet no universally accepted method for calculating the HCA content of the various salts. Again, preparations yielded the equivalent of 48 mg HCA per day from KCaHCA and 38.4 mg HCA per day from KHCA.
(§2) Systolic Blood Pressure (SBP): SBP was estimated by tail plethysmography in unanesthetized rats after a brief warming period. Readings were taken approximately one minute apart. To be accepted, SBP measurements had to be virtually stable for a minimum of three consecutive readings.
(§3) Statistical Analyses: Results are presented as mean±SEM. Many statistics were performed by one-way analysis of variance (ANOVA). SBP and BW were examined by two-way analyses of variance (one factor being dietary group and the second factor being time of examination). Where a significant effect of diet was detected by ANOVA (p<0.05), the Dunnett t test was used to establish which differences between means reached statistical significance (p<0.05). If a Student's t test was employed, this is noted.

[2] = system: C-reactive protein; assay: serum C-reactive protein, rats on 30% fat / simple sugar diet; type: in vivo; parameters: key to CRP Modulation: ** = significant; conditions: for Δ OD units after 4 wks: serum CRP, 1 unit equals 50 picograms/mL
Text: (§4) To test the properties of HCA in various forms under conditions similar to those found in human clinical trials, the inventor arranged for rats to be fed a diet in which 30% of the calories were obtained from fat under standard conditions, with a further approximately 20% of the calories being supplied as simple sugars. Such a dietary combination of fat and simple sugars is noted as promoting a variety of metabolic imbalances and dysfunctions. The rats were intubated twice daily with one of five HCA salts or placebo. On weekends, the HCA was added to the food at an approprate dosage. The amount of HCA in each arm of 8 animals was based on the minimum dosage which had been found effective in the form of the pure trisodium salt of HCA in tests by Hoffmann-La Roche in animals ingesting a 70% glucose diet, i.e., 0.33 mmoles/kg body weight HCA given twice per day. The HCA salts used were these: KCaHCA=a mixed potassium and calcium or double metal HCA salt commercially marketed as being entirely water soluble and of relatively high purity; KHCA=a relatively clean commercial potassium salt of HCA with a good mineral ligand attachment supplying 4467 mg potassium/100 grams of material; KMgHCA=three different dosage levels of an experimental potassium and magnesium salt with special characteristics, but suspected of being relatively unstable when exposed to stomach acid. The KCaHCA and KHCA salts were 60% HCA delivered at the rate of approximately 76 mg/day. The KMgHCA salts were delivered at the rate of 76 mg/day (r), 38 mg/day (l) and 228 mg/day (h), but due to initial miscalculations of the water of crystallization, this salt was only 45% HCA rather than 60%. The proper dosage for the KMgHCA(r) should have been 100 mg/day; the half dose (I) should have been 50 mg/day, and the triple dose (h) should have been 300 mg/day to match the commercial salts.
Tests were performed for C-reactive protein. Data was obtained for the animals at start and then at week 4 based on serum. Optical Density (OD) readings in the test kit used were 1 unit equals 50 picograms/mL. The delta changes over the 4 weeks for each arm vs control are shown.

[3] = system: systolic blood pressure; assay: SBP in SHR on rat chow / table sugar diet; type: in vivo, Spontaneously hypertensive rats (SHR); conditions: 100 mg HCA per day in food; over three weeks
Protocol: as §2
(§5) Spontaneously hypertensive rats (SHR) were placed on a diet composed of regular rat chow (60% w/w) and table sugar (40% w/w). This diet reliably elevates blood pressure in this animal model. One group received 100 mg HCA per day in the form of a new potassium-magnesium hydroxycitrate (different from that used in Example 1) via an added 5 g HCA per kg of food mix. Systolic blood pressure and body weight were tested as in Example 1 on a weekly basis.

[4] = body weight in SHR on rat chow / table sugar diet; type: in vivo, Spontaneously hypertensive rats (SHR); conditions: 100 mg HCA per day in food; over three weeks
Protocol: as §5

[5] = system: TNF-α; assay: TNF-α, rats on 30% fat / simple sugar diet; type: in vivo; conditions: eight weeks
Text: as §4, with “The KCaHCA and KHCA salts were 60% HCA delivered at the rate of approximately 76 mg/day. The KMgHCA salts were delivered at the rate of 76 mg/day (r), 38 mg/day (l) and 228 mg/day (h), but due to initial miscalculations of the water of crystallization, this salt was only 45% HCA rather than 60%. The proper dosage for the KMgHCA(r) should have been 100 mg/day; the half dose (I) should have been 50 mg/day, and the triple dose (h) should have been 300 mg/day to match the commercial salts.” left out

[6] = system: insulin; assay: circulating insulin concentrations; type: in vivo, Sprague-Dawley Rats; conditions: for average insulin concentrations vs control: not significant using ANOVA
Text: as §1, §3

[7] = glucose tolerance test with 0.1 unit regular insulin injected along with glucose; type: in vivo, Spontaneously hypertensive rats (SHR); conditions: at 7.5 minutes; 100 mg HCA per day in food
Protocol: This was viewed as likely positive in that rats gain weight steadily as long as they remain in good health and the SHR at middle age, as used here, lives a relatively short life and its health deteriorates as its blood pressure rises. […] A glucose tolerance test was administered in which 0.1 unit of regular insulin was injected along with glucose. […] This finding indicates increased insulin sensitivity. (FIG. 6)

[8] = rats; diet of 70% glucose and 1% fat; cited from earlier work
[9] = body weight in the C-reactive protein study; type: in vivo, rats; conditions: by week 6; salt 76 mg/day
Text: as §4, with “The KCaHCA and KHCA salts were 60% HCA delivered at the rate of approximately 76 mg/day. The KMgHCA salts were delivered at the rate of 76 mg/day (r), 38 mg/day (l) and 228 mg/day (h), but due to initial miscalculations of the water of crystallization, this salt was only 45% HCA rather than 60%. The proper dosage for the KMgHCA(r) should have been 100 mg/day; the half dose (I) should have been 50 mg/day, and the triple dose (h) should have been 300 mg/day to match the commercial salts.” left out

[10] = system: systolic blood pressure; assay: earlier study of SBP not described here; type: in vivo; conditions: 120 mg HCA per day
[11] = system: ACE system; assay: response of SBP to losartan challenge; type: in vivo, Spontaneously hypertensive rats (SHR); conditions: at 6 hours; control SHR without HCA
Text: Many factors can positively influence blood pressure, e.g., diuretics, antioxidants, regulators of sympathetic/parasympathetic tone, compounds that improve insulin sensitivity and so forth. Therefore, losartan, an angiotensin-2 receptor blocker, was utilized to discover whether the ACE system was involved in the results discussed in Example 1.
as §5
When losartan was injected, the SBP of both groups decreased. At 6 hours, the SBP were essentially the same. […] Thus, HCA appears to decrease angiotensin-2 in rats and to lower elevated SBP. Although insulin regulation likely is a factor in the blood pressure modulating effect of HCA, this evidence argues that inhibition of ACE is also important. […]

[12] = pilot open clinical weight loss trial with extremely obese patients; type: in vivo, human
Text: A multi-week pilot open clinical weight loss trial with extremely obese patients was planned to gauge the effects of a pouch delivery form of a potassium salt of (−)-hydroxycitrate under the normal circumstances faced in clinical practice with this patient population. Fourteen patients were enrolled, three of whom were diabetics on medications and several others who were suspected of suffering from insulin resistance. The patients ingested 3-4 grams of HCA per day in two divided doses. Aside from being informed that they must eat a carbohydrate-containing meal within one hour of taking the HCA and that they should avoid eating late in the day, they were not instructed to follow any special diet or exercise plan outside their normal habits and no caloric restriction was imposed. This particular form of potassium (−)-hydroxycitrate delivery typically was mixed into water or juice and consumed at mid-morning and mid-afternoon. The delivery was a water-soluble immediate release form. […] A number of patients continued on the program for 6 weeks. However, comparative data was good for only 3 weeks because two of the diagnosed diabetics experienced hypoglycemic reactions. Several other patients experienced good appetite suppression, yet also complained off episodic tiredness at the beginning of the program, a sign of low blood sugar. Two patients subsequently were placed on phentermine. […] The average weight loss over the 3 week period for these patients was approximately 3 pounds per person per week. […] At therapeutically effective dosages, HCA probably should be used with diabetic populations only under a physician's care.

O=C([O-])CC(O)(C(=O)[O-])C(O)C(=O)[O-].[K+].[Mg+2] (stereo not drawn) [KMgHCA, potassium-magnesium hydroxycitrate]
SBP compared to control ([1]; course of study, low dose 14 mg HCA per day): below the threshold for effect
lowering of SBP ([1]; high dose 84 mg HCA per day): over 10 mm Hg
lowering of SBP ([1]; intermediate dose 28 mg HCA per day): over 10 mm Hg
SBP compared to control ([1]; end of eight weeks, high dose 84 mg HCA per day): significant decreases in SBP compared to control
SBP compared to control ([1]; end of eight weeks, intermediate dose 28 mg HCA per day): significant decreases in SBP compared to control
CRP Modulation ([2]; 4 wks, salt 38 mg/day): **
CRP Modulation ([2]; 4 wks, salt 76 mg/day): **
CRP Modulation ([2]; 4 wks, salt 228 mg/day): **
Δ OD units after 4 wks ([2]; salt 38 mg/day): 33 OD units
Δ OD units after 4 wks ([2]; salt 76 mg/day): −145 OD units
Δ OD units after 4 wks ([2]; salt 228 mg/day): −11.3 OD units
SBP change from baseline [3]: decrease in SBP from baseline
body weight [4]: trend for an increase in body weight
TNF-α, simple t test versus control ([5]; intermediate dose): significance
TNF-α, simple t test versus control ([5]; low dose): significance
insulin, control versus arm alone, Student's t test ([6]; 84 mg HCA per day): at the margin of significance
average insulin concentrations vs control ([6]; all KMgHCA groups (14, 28, 84 mg HCA per day)): lower
rise in glucose appearance in bloodstream [7]: significantly lesser rise in glucose appearance in bloodstream

O=C([O-])CC(O)(C(=O)[O-])C(O)C(=O)[O-].[Na+].[Na+].[Na+] (stereo not drawn) [trisodium hydroxycitrate]
lowest dose shown to be efficacious in reducing weight gain [8]: 0.33 mmol/kg twice a day

O=C([O-])CC(O)(C(=O)[O-])C(O)C(=O)[O-].[K+].[K+].[K+] (stereo not drawn) [KHCA, potassium hydroxycitrate]
body weight, trend difference from control [9]: greatest trend differences
SBP compared to control ([1]; end of eight weeks, 38.4 mg HCA per day): significant decreases in SBP compared to control
CRP Modulation ([2]; 4 wks, salt 76 mg/day): **
Δ OD units after 4 wks ([2]; salt 76 mg/day): −155 OD units
insulin, control versus arm alone, Student's t test ([6]; 38.4 mg HCA per day): showed significance
average insulin concentrations vs control ([6]; 38.4 mg HCA per day): lower

O=C([O-])CC(O)(C(=O)[O-])C(O)C(=O)[O-].[Ca+2].[K+] (stereo not drawn) [KCaHCA, potassium-calcium hydroxycitrate]
body weight, trend difference from control [9]: greatest trend differences
SBP compared to control ([1]; end of eight weeks, 48 mg HCA per day): significant decreases in SBP compared to control
change in CRP compared with control, significance ([2]; 4 wks, salt 76 mg/day): failed to yield significant results
Δ OD units after 4 wks ([2]; salt 76 mg/day): 56 OD units
SBP [10]: decrease in SBP
trend of circulating insulin ([6]; 48 mg HCA per day): did not show a trend toward lower circulating insulin

CCCCc1nc(Cl)c(CO)n1Cc1ccc(-c2ccccc2-c2nn[nH]n2)cc1 [losartan, reference compound]
decrease in SBP after losartan injection [11]: −50±6.1

O=C([O-])CC(O)(C(=O)[O-])C(O)C(=O)[O-].[K+].[K+].[K+] (stereo not drawn) [potassium (−)-hydroxycitrate]
average weight loss ([12]; 3-4 grams of HCA per day in two divided doses, over the 3 week period): approximately 3 pounds per person per week
tolerability ([12]; apart from inconvenience and poor taste): no other issues of tolerability
hypoglycemic effect ([12]; immediate release format, diabetics, 3-4 grams of HCA per day): strong hypoglycemic effect in diabetics
weight loss ([12]; one patient, over 10 weeks): 32 pounds
